Source: US20250188457A1, “COMPOSITIONS AND METHODS FOR THE TREATMENT OF GLIOBLASTOMA BY INHIBITION OF THE TFPI2-CD51-STAT6 SIGNALING AXIS” (Northwestern University, priority 2023, published 2025)

Tests used:
005 GSC and CT2A tumors = experiment: Survival of C57BL/6 mice implanted with 005 GSCs or CT2A cells; assay type: in vivo, mouse; conditions: anti-PD1 10 mg/kg i.p. on days 11, 14 and 17, MK-0429 30 mg/kg or AS1517499 10 mg/kg i.p. every other day
Protocol: Female C57BL/6 (#0000664), nude mice (#007850), and B6.12952(C)-Stat6tm1Gru/J mice (STAT6-KO; #005977) at 6 weeks of age were purchased from the Jackson Laboratory. Mice were grouped by 5 animals and maintained in a pathogen-free IVC System (San Diego, CA) for a week before the experiment. All animal experiments were performed with the approval of the Institutional Animal Care and Use Committee (IACUC) at Northwestern University. The intracranial xenograft tumor models were established (Refs. 11, 61; incorporated by reference in their entireties). Ketamine (100 mg/kg) and xylazine (20 mg/kg) were used for anesthetizing mice through intraperitoneal injection. Then a dental drill was used to open a small hole in the skull 1.2 mm anterior and 3.0 mm lateral to the bregma. A total volume of […] cells in FBS-free DMEM was injected into the right caudate nucleus 3 mm below the surface of the brain using a […] Hamilton syringe with an unbeveled 30-gauge needle. Total three doses of 20 mg/kg meloxicam were administrated before and after surgery through subcutaneous injection. After cancer cell implantation, mice were monitored for recording survival. Mice with neurological deficits or moribund appearance were sacrificed. Following the transcardiac perfusion with PBS and 4% paraformaldehyde (PFA), brains were removed and fixed in 4% PFA, and were processed for paraffin-embedded blocks or cryosectioning.

GSC23 and GSC262 cells = experiment: Tumorsphere formation assay (GSC self-renewal); assay type: cell-based, human; conditions: GSC262 and GSC23; indicated concentrations
Protocol: The tumorsphere formation assay was performed (Ref. 79; incorporated by reference in its entirety). GSCs were treated with different concentrations of recombinant TFPI2 protein for 24 hrs with or without inhibition of JNK or STAT3, or modified with TFPI21 KO, knockdown or overexpression. After treatment or genetic modifications, cells were centrifuged at 1500 rpm for 5 min and resuspended in the plain cell culture media without additional supplements. Cells were then seeded into a 96-wells plate at 100 cells/well. The number of tumorspheres in each well was imaged and quantified after 10 days.

Molecule	survival of mice bearing 005 GSC and CT2A tumors, combination with anti-PD1 therapy (005 GSC and CT2A tumors)	GSC self-renewal (tumorspheres) upon TFPI2 recombinant protein (GSC23 and GSC262 cells)
NC(=O)c1cnc(NCCc2ccc(O)c(Cl)c2)nc1NCc1ccccc1 [AS1517499]	synergized	
TFPI2 recombinant protein (tissue factor pathway inhibitor 2; BioVision, #7481-10) (ligand, UniProt P48307 23-235, looked up, Bought recombinant protein added to microglia at 20 ng/ml; also called recombinant TFPI2; secreted TFPI2) DAAQEPTGNNAEICLLPLDYGPCRALLLRYYYDRYTQSCRQFLYGGCEGNANNFYTWEACDDACWRIEKVPKVCRLQVSVDDQCEGSTEKYFFNLSSMTCEKFFSGGCHRNRIENRFPDEATCMGFCAPKKIPSFCYSPKDEGLCSANVTRYYFNPRYRTCDAFTYTGCGGNDNNFVSREDCKRACAKALKKKKKMPKLRFASRIRKIRKKQF		Enhanced
